{"source": "paper PMC9817077", "about": "“Simple, Reliable Protocol for High-Yield Solubilization of Seedless Amyloid-β Monomer” (ACS Chemical Neuroscience, 2022)", "key": {"[1]": {"assay": "Negative-stain electron microscopy (NS-EM)", "format": "physicochemical", "conditions": "4 μM", "procedure": "To perform a further test for the presence of seeds, and determine whether the detected oligomers affected the self-assembly kinetics, Aβ(1-42) samples were purified by SEC, and their self-assembly kinetics were compared to those of unpurified samples. In summary, following the protocol used by Hellstrand et al.,[39] […] The fraction eluting from 13.6 to 14.6 min (at 1 mL/min) was collected on ice, diluted variably (60, 80, or 100%, i.e., undiluted) in the elution buffer to give a range of concentrations, supplemented with ThT from a concentrated stock, and used in ThT assays. This purification procedure was repeated several times with reproducible results, and a representative elugram is shown in Figure 6a. The UV absorbance and RI elugrams are very similar to those previously reported for in-house recombinant peptide purified according to the same protocol,[39] and the peak at ∼14 min has already been identified as the monomer. […]\nThe resulting sample was deposited on grids immediately, or after incubation for 1 h in a 96-well plate treated with a PEG-like low-binding surface (Corning 3881, NY), at 37 °C. […] Micrographs were recorded with a 1024 × 1024 px Gatan CCD camera, and images were analyzed using FIJI.[100],[101]"}, "[2]": {"assay": "Global fitting of ThT self-assembly curves to nucleated polymerization models", "format": "physicochemical", "conditions": "global fit", "from_the_text": "To test whether an equivalent analysis favored\n106 four models to ﬁt the experimental data. Each model was globally ﬁtted, with all kinetic 107 parameters shared across initial monomer concentrations.\nFirstly, we tested the Oosawa model (19). In this model, ﬁbrils form by primary nucle-ation, which behaves as annthc -order multimerization process. Fibrils then grow by stepwise addition of monomers to the ﬁbril end, which behaves as a second-order association between a ﬁbril and a free monomer. This model admits the exact solution (13, 20) […]\nm(0) = 1−sech2/nc 2 λt , (S2)\n109 Here, kn is the rate parameter for primary nucleation and k+ is the rate parameter for 110 elongation. As shown in Figure S8(a), the Oosawa model results in a poor ﬁt. Speciﬁcally, 111 the lack of a secondary process means the model cannot produce exponential early-time 112 scaling, and lacks a pronounced lag phase. This […] our observation of exponential 113 early-time kinetics, and the ﬁndings of previous work (16).\nNext, we tested models that included a secondary process. Three such processes were considered: fragmentation (13, 14, 21), single-step secondary nucleation (14), and saturable multi-stepsecondarynucleation(17,18). Inallthreecases, theapproximatesolutionhasthe same mathematical form, and the models diﬀer only in the deﬁnitions of certain parameters.\nThe general equation is (13, 14, 21)\nM(t) B− +C+eκt κ˜k∞e−k∞t, (S4) m(0) = 1− B+ +C+eκt B− +C+\nHere, λ has the same deﬁnition as Eq. (S3), andκ and k∞ have model-speciﬁc deﬁnitions.\nSince fragmentation can be treated as a special case of secondary nucleation (14, 16), we begin with the deﬁnitions for single-step secondary nucleation, […]\n114 where k2 is the (n2 + 1)th-order rate constant for formation of a secondary ﬁbril nucleus 115 of eﬀective sizen2, at a rate also proportional to the concentration of monomers already 116 incorporated into ﬁbrils (14).\nThe correct solution for fragmentation can be obtained by taking the limit n2→ 0 (in practice, setting n2 = 10−3) and substituting (13, 14, 21)\n117 wherekf is the rate constant for fragmentation at each possible break point along the length 118 of the ﬁbril. When ﬁtting the fragmentation-dominated model, the value ofkf was con-119 strained such thatkfk+ =knk+× (10−5.5 M)nc/(10−8 M), a constraint that was also applied 120 in (16). This ensures that fragmentation becomes dominant when the ﬁbril mass concen-121 tration M(t)≈ 10 nM for a reaction with initial monomer concentration m(0) =√10 µM, 122 forcing the ﬁtting algorithm to maintain an appreciable level of fragmentation. Without 123 this constraint, kf is simply minimized in order to attain a high concentration-dependence, […]\n124 resulting in a ﬁt very similar to that obtained for the Oosawa model (16). […]\nused with the modiﬁed deﬁnitions\nA(t) =− λ2nc− 2k2k+K2m(0)log [K2 +m(t)n2]n2\n125 where K2 is the eﬀective Michaelis constant for secondary nucleation, and2F1 is a hyper-126 geometric function. Note that, unlike traditional Michaelis-Menten kinetics, the rate of 127 saturable secondary nucleation has an nth2 -order rather than a linear dependence on m(t) in 128 the low concentration limit (15, 17, 18).\n129 As shown in Figure S8(b), fragmentation succeeds in producing exponential early-time 130 scaling and a pronounced lag phase, but also results in a weak concentration-dependence 131 and an overly sharp approach to the maximum ﬂuorescence intensity. The latter two issues 132 are caused by the insensitivity of fragmentation to depletion of the free monomer, and 133 also lead to a high ﬁtted reaction order of primary nucleation (nc = 5.23), an attempt to 134 compensate for the weak concentration scaling of the secondary process. Had the value 135 of kf been left unconstrained, the ﬁt would instead have done this by minimising the role 136 of the concentration-insensitive secondary pathway, producing a ﬁt similar to Figure S8(a).\n138 better ﬁt, as it is able to simultaneously produce exponential early-time scaling, the correct […]"}, "[3]": {"conditions": "fluorescence-based assays, cited from earlier work", "procedure": "Aβ samples that are stored in a lyophilized form are often re-solubilized by treatment with a dilute base such as 1–10 mM NaOH or 0.02–1% NH4OH.[41],[46],[48],[53],[56],[57] These treatments would be expected to give a pH of 10.6–12.0, in the absence of any partial neutralization of the solvent. […] In addition, many st ..."}}}
{"substance": "Aβ(1-42): Ultrapure recombinant Aβ(1-42) purchased from rPeptide, lyophilized from HFIP; disordered amyloid-forming peptide", "values": [{"measurement": "fibrillar species by NS-EM immediately after dilution", "setting": "[1]; 50 mM NaOH sample diluted into pre-adjusted fibrillization buffer pH 8", "result": "did not reveal any fibrillar species"}, {"measurement": "fibrillar species by NS-EM after incubation", "setting": "[1]; ∼1 h under fibrillization conditions, 37 °C, early growth phase", "result": "fibrils were observed"}, {"measurement": "nc", "setting": "[2]; fragmentation model, kf constrained", "result": 5.23}, {"measurement": "nc", "setting": "[2]; primary nucleation only (Oosawa model), 1.5–6.0 μM, sample 50-5-N-13", "result": 2.37}, {"measurement": "K2 (effective Michaelis constant for secondary nucleation)", "setting": "[2]; saturable secondary nucleation", "result": 2.74, "unit": "µM"}, {"measurement": "n2", "setting": "[2]; saturable secondary nucleation", "result": 2.37}, {"measurement": "nc", "setting": "[2]; saturable secondary nucleation, nc = n2 constrained", "result": 2.37}, {"measurement": "n2", "setting": "[2]; single-step secondary nucleation", "result": 1.68}, {"measurement": "nc", "setting": "[2]; single-step secondary nucleation, nc = n2 constrained", "result": 1.68}, {"measurement": "pH threshold for complete elimination of self-assembly", "setting": "[3]", "result": "11.0–12.0 pH"}, {"measurement": "approximate timescale of limited aggregation", "setting": "[3]; pH 11.0", "result": "several hundred seconds"}]}
